What all share (assay): DTP human tumour cell line panel, 48 h
For assay [1], the system named is 786-0 renal.
Assay [2] concerns LOX IMVI melanoma.
The test system of assay [3] is SK-MEL-28 melanoma.
In assay [4] the test system is BT-549 breast.
For assay [5], the system named is IGROV1 ovarian.
The subject of assay [6] is HL-60(TB) leukemia.
Assay [7] relates to SF-539 CNS.
Assay [8] has as its system TK-10 renal.
Assay [9] has as its system T-47D breast.
Assay [10] relates to UACC-62 melanoma.
The subject of assay [11] is ACHN renal.
The subject of assay [12] is MDA-N.

Values joined by “and” are separate entries in the source; they are usually repeats but may differ in a detail not shown here. Identical values can stand only once.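 These data come from cells grown in 96-well plates and exposed to compound for 48 hours at five concentrations. GI50 is the concentration that inhibits growth by half. At the TGI there is no net growth.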

On to `Clc1nc(Cl)nc(NC23CC4CC(CC(C4)C2)C3)n1`, for which the TGI – broadly, the concentration at which net growth stops – in assay [1] came out at 31.2 µM; in assay [2], 26.9 µM; in [3] it was 36.8 µM; in [4], 35.6 µM; in assay [5], 28.3 µM; in [6] it was 16.5 µM. For the same molecule, the TGI is 35 µM in [7]; 32.6 µM in assay [8]; 42.6 µM in assay [9]; 35.1 µM in assay [10]; over 57.7 µM in assay [11]; 35.3 µM in assay [12].

Regarding `CC(=O)C(CN1CCCCC1)C(c1ccccc1)c1c(O)c2ccccc2oc1=O` (centres undefined), the TGI in assay [1], in assay [2], in assay [3], in [4], in [5] and in assay [6] was over 100 µM in each case. Moreover, the TGI in [7], in [8], in assay [9], in assay [10], in assay [11] and in assay [12] was over 100 µM in each case.

Regarding `CCOC(=O)c1cc(=C2\CCN(CC(C)CC)C2=S)/c(=C(/O)CC)[nH]1` (centres undefined), the total growth inhibition concentration (TGI) amounted to 30.5 µM in assay [1]; 41.2 µM in [2]; 34.8 µM in assay [3]; 35.4 µM in [4]; 37.1 µM in assay [5]; 27.3 µM in assay [6]. Also, the total growth inhibition concentration (TGI) in assay [7] is 24.9 µM; in assay [8], 28.6 µM; in assay [9], 30.9 µM; in [10] it was 30.8 µM; in assay [11], 28.9 µM; in assay [12], 28.2 µM.

For the molecule `CCCCc1c(O)nc(Nc2nc3ccccc3[nH]2)[nH]c1=O`, the TGI in assay [1], in assay [2], in assay [3], in assay [4], in assay [5] and in assay [6] was over 100 µM throughout. The TGI in [7], in assay [8], in [9], in assay [10], in assay [11] and in [12] was over 100 µM throughout.

In the case of `O=C1CC(C(O)CO)CC(=O)N1` (centres undefined), the TGI in assay [1], in assay [2], in assay [3], in [4], in assay [5] and in assay [6] was over 100 µM each time. Besides, the TGI in assay [7], in [8], in assay [9], in assay [11] and in assay [12] was over 100 µM each time.

For `COc1ccc(N2C(=O)C3c4[nH]c5ccc([N+](=O)[O-])cc5c4C4CCC(C(C)(C)C)CC4C3C2=O)cc1` (centres undefined), the TGI in assay [1] was 38 µM; in [2] it was over 100 µM; in [3], over 100 µM; in assay [4], over 100 µM; in assay [5], over 100 µM; in [6], 33.5 µM. Besides, the total growth inhibition concentration (TGI) in assay [7] is over 100 µM; in [8], over 100 µM; in assay [9] it was over 100 µM; in [10] it was over 100 µM; in [11], 63.6 µM; in assay [12] it was over 100 µM.

As for `COc1ccc(-c2c(C#N)c(N)n(C3OC(CO)C(O)C(O)C3O)c(=S)c2C#N)cc1` (centres undefined), the total growth inhibition concentration (TGI) in [1], in [2], in [3], in assay [4], in assay [5] and in [6] was over 100 µM in each case. Further, the concentration for total growth inhibition (TGI) in [7], in assay [8], in assay [9], in [10], in assay [11] and in assay [12] was over 100 µM throughout.

For the molecule `COc1ncc(C=C(C#N)C#N)c(OC)n1`, the total growth inhibition concentration (TGI) is 42.4 µM in [1]; over 100 µM in [2]; over 100 µM in assay [3]; over 100 µM in assay [4]; over 100 µM in [5]; 49.7 µM in [6]. In addition, the TGI was over 100 µM in assay [7]; over 100 µM in assay [8]; over 100 µM in assay [9]; over 100 µM in assay [10]; over 100 µM in assay [11]; 92.6 µM in [12].

In the case of `COC(=O)C1(Cc2ccccc2)Cc2cc3c(cc2C1=O)CCC3` (centres undefined), the TGI is over 100 µM in assay [1]; 79.1 µM in assay [2]; over 100 µM in [3]; over 100 µM in assay [4]; over 100 µM in assay [5]; 36.7 µM in assay [6]. In addition, the TGI in assay [7] is over 100 µM; in [8], over 100 µM; in [9], 66.6 µM; in assay [10], over 100 µM; in [11] it was over 100 µM; in [12], 37.3 µM.

For the molecule `CC(C)=CCN1CC(C)C(=O)Nc2cc(Cl)ccc21` (centres undefined), the TGI in [1] is 39.2 µM; in [2], 32.4 µM; in [3] it was over 100 µM; in assay [4] it was 51.6 µM; in assay [5], 81.9 µM; in assay [6], over 100 µM. Moreover, the concentration for total growth inhibition (TGI) is 43 µM in assay [7]; 63.8 µM in assay [8]; over 100 µM in assay [9]; 67.5 µM in assay [11]; 54.6 µM in assay [12].

In the case of `COc1ccc(Nc2[nH]c(C(C)=O)c(N)c2C(=S)Nc2ccccc2)cc1`, the TGI in [1], in assay [2], in assay [3], in assay [4], in assay [5] and in [6] was over 100 µM in each case. Besides, the TGI in assay [7] was over 100 µM; in assay [8] it was over 100 µM; in [9], over 100 µM; in assay [10], 95.7 µM; in [11] it was over 100 µM; in assay [12], over 100 µM.

Consider `COc1ccc(-c2c(C#N)c(S)n(C3OC(COC(C)=O)C(OC(C)=O)C(OC(C)=O)C3OC(C)=O)c(=O)c2C#N)cc1` (centres undefined), for which the TGI in assay [1] was > 100 µM and 80.9 µM; in assay [2], over 100 µM; in assay [3], > 100 µM and 37.3 µM; in [4] it was 74.4 µM and 79 µM; in [5], over 100 µM; in assay [6], > 100 µM and 45.6 µM. Besides, the TGI is over 100 µM in assay [7]; > 100 µM and 92.2 µM in assay [8]; > 100 µM and 52.5 µM in assay [9]; 97.9 µM and 61.9 µM in assay [10]; over 100 µM in assay [11]; over 100 µM in assay [12]. Besides, the GI50 (as a rule, the concentration that inhibits growth by half) was > 100 µM and 20.8 µM in assay [3]; > 100 µM and 49.7 µM in assay [5]; > 100 µM and 34.8 µM in assay [12].

Turning to `C=CC(=O)c1ccc2c(c1)OCCOCCOCCOCCOCCO2`, the TGI in assay [1] was 31.1 µM; in assay [2], 35.6 µM; in [3] it was 34 µM; in [4], 37.2 µM; in [5] it was over 100 µM; in assay [6], over 100 µM. For the same molecule, the TGI in [7] was 33.2 µM; in assay [8], 31.1 µM; in [9] it was 59.4 µM; in assay [10], 92 µM; in assay [11], 31.9 µM; in assay [12], over 100 µM.

For the molecule `CCOC(=O)c1cc(C2(O)CCN(Cc3ccccc3)C2=O)c(-c2cc(C)no2)[nH]1` (centres undefined), the TGI was over 100 µM in assay [1]; over 100 µM in assay [2]; over 100 µM in assay [3]; over 100 µM in [4]; over 100 µM in [5]; 34.7 µM in assay [6]. Besides, the TGI in [7] is over 100 µM; in [8], over 100 µM; in assay [9], 74.8 µM; in assay [10], over 100 µM; in assay [11], over 100 µM; in assay [12], over 100 µM.

For `c1sc(NC2=NCCO2)c2c1CCCC2`, the TGI in assay [1], in assay [2], in assay [3], in assay [4], in [5] and in [6] was over 100 µM in each case. Moreover, the TGI in [7], in [8], in assay [9], in assay [10], in assay [11] and in assay [12] was over 100 µM throughout.

In the case of `O=C(/C(=C(/Br)I)c1ccccc1)c1ccccc1`, the total growth inhibition concentration (TGI) is 39.5 µM in assay [1]; 32.3 µM in [2]; 54.3 µM in assay [4]; over 100 µM in assay [5]; over 100 µM in assay [6]; 37.7 µM in assay [7]. The TGI came to 69.1 µM in [8]; 59.8 µM in assay [9]; 34.4 µM in [10]; 71.2 µM in assay [11]; 81.9 µM in assay [12].

Regarding `O=c1[nH]cnc2c(C3OC(CO)C(O)C3O)c[nH]c12` (centres undefined), the TGI in assay [1], in [2], in assay [3], in assay [4], in [5] and in assay [6] was over 100 µM each time. The TGI in assay [7], in assay [8], in assay [9], in [10], in assay [11] and in assay [12] was over 100 µM in each case.

With `CC(=O)OCC1OC(N2C(=O)/C(=C\c3ccc(Cl)cc3)C(N)=Nc3ccccc32)C(OC(C)=O)C(OC(C)=O)C1OC(C)=O` (centres undefined), the concentration for total growth inhibition (TGI) is 43.6 µM in assay [1]; 39.2 µM in [2]; 71.2 µM in [3]; over 100 µM in assay [4]; 63.4 µM in assay [5]; over 100 µM in [6]. For the same molecule, the TGI in assay [7] was 40.8 µM; in assay [8], 88.2 µM; in assay [9] it was 39.1 µM; in assay [10], over 100 µM; in assay [11] it was 45.7 µM; in [12] it was 37.9 µM.

For the molecule `O=C(Cc1nc2ccc(C(=O)c3ccccc3)cc2[nH]c1=O)C(=O)Nc1ccc(Br)cc1`, the TGI in assay [1], in assay [2], in assay [3], in assay [4], in assay [5] and in assay [6] was over 100 µM each time. For the same molecule, the total growth inhibition concentration (TGI) in assay [7], in [8], in [9], in assay [10], in assay [11] and in assay [12] was over 100 µM each time.

Regarding `O=c1[nH]c2nc3ccccc3c(=O)n2/c1=C/c1ccc(O)cc1`, the TGI in assay [1], in assay [2], in [3], in [4], in assay [5] and in [6] was over 100 µM each time. In addition, the concentration for total growth inhibition (TGI) in assay [7] was 46.6 µM; in assay [8], over 100 µM; in [9], over 100 µM; in assay [10], over 100 µM; in assay [11], over 100 µM; in assay [12], over 100 µM.

Take `N#CC1=C(N)OC2=C(CSc3ccccc32)C1c1ccc(Br)cc1` (centres undefined): the TGI was found to be 22.8 µM in assay [1]; 11.2 µM in assay [2]; 28 µM in assay [3]; 28.4 µM in assay [4]; 25.8 µM in assay [5]; 6.17 µM in [6]. Further, the TGI in assay [7] was determined as 13.7 µM; in [8], 31.2 µM; in [9], 25.8 µM; in assay [10], 21.8 µM; in assay [12], 14.4 µM.

In the case of `c1cc(-c2cnc(-c3ccc4c(c3)CCCO4)o2)ccn1`, the TGI in [1] was 53 µM; in [2], 29.7 µM; in [3], 32.2 µM; in assay [4], 29.1 µM; in assay [5] it was 36.5 µM; in assay [6], 21.9 µM. The total growth inhibition concentration (TGI) in assay [7] stood at 21.8 µM; in assay [8], 42.1 µM; in [9], 47.2 µM; in [10], 31.7 µM; in [11] it was 37.9 µM; in assay [12], 27.8 µM.

As for `CC12CC(c3ccccc3O1)C(C(=O)Nc1ccc(F)cc1)C(=O)N2` (centres undefined), the TGI in [1], in [2], in [3], in assay [4], in assay [5] and in assay [6] was over 100 µM each time. Also, the TGI in assay [7], in [9], in assay [10], in [11] and in [12] was over 100 µM throughout.
